Target: T1, glucocorticoid receptor, rat thymus (Rattus norvegicus, UniProt P06536)
T1 construct: The second test was a glucocrticoid receptor test on rat thymus; from tissue; host or cells: thymus of adrenalectomized male Sprague Dawley EOPS rats, 105,000 g supernatant (cytosol)
T1 sequence (P06536 1-795): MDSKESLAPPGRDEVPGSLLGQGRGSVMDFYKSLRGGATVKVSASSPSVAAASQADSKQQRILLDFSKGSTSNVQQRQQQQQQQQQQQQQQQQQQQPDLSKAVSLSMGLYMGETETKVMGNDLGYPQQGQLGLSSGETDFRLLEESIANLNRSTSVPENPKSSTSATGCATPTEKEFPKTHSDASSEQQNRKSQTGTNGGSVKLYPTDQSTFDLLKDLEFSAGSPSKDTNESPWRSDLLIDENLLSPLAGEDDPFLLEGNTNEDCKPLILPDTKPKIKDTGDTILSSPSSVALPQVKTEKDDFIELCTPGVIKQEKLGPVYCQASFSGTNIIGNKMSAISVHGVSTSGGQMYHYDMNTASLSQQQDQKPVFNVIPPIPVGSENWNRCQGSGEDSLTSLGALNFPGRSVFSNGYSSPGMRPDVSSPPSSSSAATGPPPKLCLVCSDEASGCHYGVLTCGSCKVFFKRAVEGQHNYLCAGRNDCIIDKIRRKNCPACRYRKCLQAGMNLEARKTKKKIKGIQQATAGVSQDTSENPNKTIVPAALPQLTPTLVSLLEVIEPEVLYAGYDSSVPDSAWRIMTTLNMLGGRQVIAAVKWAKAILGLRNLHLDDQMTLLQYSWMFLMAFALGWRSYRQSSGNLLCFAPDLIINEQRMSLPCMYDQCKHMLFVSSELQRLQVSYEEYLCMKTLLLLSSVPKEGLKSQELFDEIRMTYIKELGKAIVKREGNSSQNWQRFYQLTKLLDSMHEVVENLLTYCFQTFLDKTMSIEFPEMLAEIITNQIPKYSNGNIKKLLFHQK
Assay: Relative binding affinity (ARL), glucocorticoid receptor of rat thymus
Conditions: rat thymus cytosol, tritiated dexamethasone, cold reference dexamethasone; for relative affinity of the bond (ARL), Glucocorticoid, 2H: incubation 2H at 0° C.; for relative affinity of the bond (ARL), Glucocorticoid, 24H: incubation 24H at 0° C.
Method: The second test was a glucocrticoid receptor test on rat thymus in which male rats of the Sprague Dawley EOPS strain weighing 160 to 200 g were surrenalectomized. 4 to 8 days after this ablation, the animals were killed and the thymus was removed and homogenized at 0° C. in a buffered TS solution. (Tris 10 mM, 0.25M saccharose, 2 mM dithiothreitol, HCl pH 7.4) with a Potter tetrafluoroethylene-glass (1 g of tissue per 10 ml/TS). The homogenate was ultracentrifuged at 105,000 for 90 minutes at 0° C. and the surnageant samples were incubated at 0° C. for a time t with a constant concentration T of tritiated dexamethasone in the presence of increasing concentrations (0-2500×10^-9 M) or cold dexamethasone or cold test compound. The concentration B of bound tritiated dexamethasone was measured for each incubate by carbon-dextran absorption technique.
The relative affinity of the bond (ARL) was calculated in the same for the receptors. One traced the following 2 curves: the percentage of bond tritiated hormone B/T as a logarithmic function of the concentration of the cold reference hormone and B/T as a logarithmic function of the concentration of the cold test compound. Using the equation [formula] B/T max.=% of bound tritiated hormone for one incubation of tritiated hormone at concentration (T)
B/T min.=% of bound tritiated hormone for one incubation of tritiated hormone at a concentration T in the presence of a great excess of cold hormone (2500×10^-9 M).
The intersections of I50 lines and the curves permit an evaluation of the hormone concentration of the cold reference (CH) and the cold test compound (CX) which inhibited by 50% the bounding of tritiated hormone to the receptor. The ARL of the test compound was determined by the equation. [formula] and the following results were obtained.

relative affinity of the bond (ARL), Glucocorticoid, 2H | relative affinity of the bond (ARL), Glucocorticoid, 24H | Compound
61 | 58 | CN(C)c1ccc([C@H]2C[C@@]3(C)[C@@H](CC[C@@]3(O)c3ccc(N(C)C)cc3)[C@@H]3CCC4=CC(=O)CCC4=C32)cc1 [Example 2, 11β,17α-bis-(4-dimethylamino-phenyl)-Δ^4,9-estradiene-17β-ol-3-one]
65 | 69 | COc1ccc([C@]2(O)CC[C@H]3[C@@H]4CCC5=CC(=O)CCC5=C4[C@@H](c4ccc(N(C)C)cc4)C[C@@]32C)cc1 [Example 4, 11β-(4-dimethylamino-phenyl)-17α-(4-methoxy-phenyl)-Δ^4,9-estradiene-17β-ol-3-one]

Reference: patent US4943566A, “Novel 17-aryl-steroids” (Roussel Uclafi, priority 1987, dated 1990)
